Like-named read-outs stand apart in the source and are kept apart here.

What is called IC50 is the point on the concentration scale where inhibition reaches its midpoint.

Series [1] concerns CD3-mediated IFN-γ production. Kind of series: Ex vivo anti-CD3 stimulation of lymph node cells in the presence of RBV, IFN-gamma ELISA. The format is cell-based, Mice. Here is the method: (§1) We repeated the experiment with a lower dose of RBV in vivo (0.5 mg/kg IP).
(§2) Mice were injected with SEQ ID NO. 14 (100 micrograms SC), RBV (0.5 mg/kg IP) or SEQ ID NO. 14 and RBV. RBV was administered in vivo either at day 0 or day 5 and CpG was administered at day O, Samples were isolated at Day 6 from the inguinal lymph node and maintained in medium on anti-CD3 coated plated in the presence of 1-16 μM RBV. On Day 8 an ELISA assay was performed to detect IFN-gamma.
The ex vivo effect of RBV on CD3-mediated IFN-γ production independently of prior ODN/RBV treatment was examined. Similar to the data described above, low concentrations of RBV in vitro increased IFN-γ levels independently of previous in vivo treatments (FIG. 5A).
On the technique in general: ELISA stands for enzyme-linked immunosorbent assay.

Series [2] relates to T cell IFN-γ production. Kind of series: In vivo treatment of mice with CpG ODN and/or RBV, ex vivo anti-CD3 induced IFN-gamma production of inguinal lymph node cells (ELISA). As to conditions: for T cell IFN-γ production ex-vivo after in vivo treatment with a single agent: SEQ ID NO. 14 100 micrograms SC or RBV 0.5 mg/kg IP alone, lymph node Day 6, ELISA Day 8, FIG. 4. As to the method: as §1, §2

Series [3] has as its system Human PBMC. Put plainly: Effect of Ribavirin on CpG ODN-induced cytokines in human PBMC co-culture. The format is cell-based. As to conditions: for IC50: Homo sapiens, PBMC, calculated IC50 upon addition of Ribavirin to cultures containing 1 μM SEQ ID NO: 13. Here is the method:
(§3) Cell purification Peripheral blood buffy coat preparations from healthy human donors were obtained from the Blood Bank of the University of Düsseldorf (Germany) and PBMC were purified by centrifugation over Ficoll-Hypaque (Sigma). Cells were cultured in a humidified incubator at 37° C. in RPMI 1640 medium supplemented with 5% (v/v) heat inactivated human AB serum (BioWhittaker) or 10% (v/v) heat inactivated FCS, 2 mM L-glutamine, 100 U/ml penicillin and 100 μg/ml streptomycin (all from Sigma).
(§4) Cytokine detection PBMC were resuspended at a concentration of 5×10^6 cells/ml and added to 96 well round-bottomed plates (250 μl/well). PBMC were incubated with various ODN, ORN or nucleoside concentrations and culture supernatants (SN) were collected after the indicated time points. If not used immediately, SN were stored at −20° C. until required. For inhibitory experiments, cells were stimulated with the indicated TLR ligand concentration and nucleoside or ORN added. In some experiments, the second modified ORN was added 1 h after the start of the cell culture.
(§5) Amounts of cytokines in the SN were assessed using a commercially available ELISA Kit for IL-12p40 (from BD Biosciences, Heidelberg, Germany), IFN-γ and TNF-α (from Diaclone, Besancon, France) or an in-house ELISA for IFN-α developed using commercially available antibodies (PBL, New Brunswick, N.J., USA). For analysis of a broad set of cytokines and chemokines, multiplex analysis with a luminex system from Bio-Rad (Munich, Germany) and Multiplex kits from Biosource (Solingen, Germany) was performed.
The observations were particularly noted at lose doses of Ribavirin.

Series [4] has as its system bone marrow (BM) derived dendritic cells (DCs). Put plainly: Cytokine production of bone marrow derived dendritic cells treated with SEQ ID NO. 14 and/or RBV. The series is classed as cell-based. As to the method: Similar experiments were performed using bone marrow (BM) derived dendritic cells (DCs). BM-derived DC maintained in GM-CSF were treated with SEQ ID NO. 14, RBV (1 μM, 5 μM, 10 μM, 100 μM, or 120 μM) or with SEQ ID NO. 14 and RBV. At 4, 24 and 72 hours samples were tested for cytokine, IL-10 (FIG. 6), IL-12p40 (FIG. 7A), IL-12p70 (FIG. 7B) and TNF (data not shown). No effects of RBV alone at 120 μM were observed. SEQ ID NO. 14 induced IL-12, IL-10 and TNF. RBV decreased IL-10 and TNF but increased IL-12 (at 72 h only). RBV decreased SEQ ID NO. […].

For series [5], the system named is Human PBMC. Kind of series: Cytokine induction by ORN in human PBMC (ELISA of supernatants). The series is classed as cell-based. As to conditions: human PBMC (n=3); for IFN-alpha cytokine induction, 8-modified nucleotide at the ORN 5′ end: FIG. 3, compared to the unmodified ORN (SEQ ID NO:8 and 11); for IFN-alpha cytokine induction, effect of the position of 8-Oxo-rG: FIG. 2, versus control SEQ ID NO:8. Here is the method:
as §3, §4, §5
Human PBMC (n=3) were stimulated with 8-Oxo-rG (a C-8 substituted guanosine) modified ORN (SEQ ID NO:1-4) and an unmodified ORN (SEQ ID NO:8). Supernatants were collected and cytokines IFN-alpha (FIG. 1a), IL-12p40 (FIG. 1b) and TNF-alpha (FIG. 1c) were measured.
Human PBMC (n=3) were stimulated with the indicated ORN with a single 8-Oxo-rG at different positions of the ORN (SEQ ID NO:1-4) and the […] negative control (SEQ ID NO:8). Supernatants were collected and IFN-alpha measured.
Human PBMC (n=3) were stimulated with the indicated ORN with a single 8-Oxo-rG/Dg (SEQ ID NO:1, 5), 8-Bromo-dG (SEQ ID NO:7) or Immunosine (Isatoribine) (SEQ ID NO:6) (with a 5′-5′ linkage) at the 5′ end of the ORN and IFN-alpha measured. […] Similar data were obtained for 8-Bromo-rG (data not shown). In addition, even the linkage of a 8-modified dA or rA (data not shown) results in an, although only slight increase of the cytokine induction.

Series [6] concerns C26 SC mouse model. Put plainly: C26 SC mouse cancer model, survival. The format is in vivo. As to conditions: 100 micrograms ODN intra/peri tumor at days 7, 14, 21; 0.5 mg/kg RBV IP on same days; as of days 30-40; FIG. 8. As to the method: C26 SC mouse model was treated with SEQ ID NO. 14 and RBV (100 micrograms ODN intra/peri tumor at days 7, 14, 21 and 0.5 mg/kg RBV IP on same days).

Setting [7] is: human PBMC stimulated with CpG ODN (SEQ ID NO:15 as printed), increasing doses of Ribavirin.
Setting [8] is: SEQ ID NO. 14 alone, BM-derived DC in GM-CSF.

Consider `NC(=O)c1ncn([C@@H]2O[C@H](CO)[C@@H](O)[C@H]2O)n1` [Ribavirin], for which the “IFN-γ production, ex vivo anti-CD3 stimulation in the presence of RBV” value in series [1] (initial experiment, only at rather low concentrations of RBV (1-5 μM)) is recorded as “increase IFN-γ production”. Besides, the “CD3-mediated IFN-γ levels, RBV in vitro” value in series [1] (low concentrations of RBV in vitro, independently of previous in vivo treatments, FIG. 5A) is “increased”. Besides, the “effect of RBV on IFN-γ production when CpG ODN was also injected” value in series [2] (RBV 0.5 mg/kg IP with SEQ ID NO. 14 100 micrograms SC, FIG. 4B) is given as “greatly enhanced”. Besides, in series [2], the “T cell IFN-γ production ex-vivo after in vivo treatment with a single agent” value is reported as “small effect”. Moreover, the “ex vivo IFN-γ CD3-induced production after in vivo RBV” value in series [2] (initial experiment, 10 mg/kg intraperitoneal (IP) RBV) was “no effect in vivo of RBV and possibly even a slight decrease”. The figures for the IC50 in series [3] (read-out: IC50 IFN-alpha), in series [3] (read-out: IC50 IL-6) and in series [3] (read-out: IC50 IL-10) were 1000 µM, 320 µM and 58 µM, respectively. Moreover, the “effect on the CpG-induced IL10 induction” value in series [3] (setting [7]) is “suppressive effect”. The “suppressive effect with respect to IFN-alpha” value in series [3] (setting [7]) is “not observed”. Moreover, the “effect of RBV on SEQ ID NO. 14-induced IL-12p40” value in series [4] (BM-derived DC, FIG. 7A) was “decreased”. Moreover, the “effect of RBV on SEQ ID NO. 14-induced IL-12p70” value in series [4] (BM-derived DC, FIG. 7B) is recorded as “increased IL-12p70 (slightly)”. In addition, the “effect of RBV on SEQ ID NO. 14-induced IL-10” value in series [4] (BM-derived DC, RBV 1-120 μM with SEQ ID NO. 14, FIG. 6) is “decreased”. Moreover, the “effect of RBV on IL-12” value in series [4] (BM-derived DC, RBV with SEQ ID NO. 14, at 72 h only) is “increased”. Also, in series [4] (BM-derived DC, RBV with SEQ ID NO. 14, data not shown), the “effect of RBV on TNF” value was “decreased”. The “cytokines (IL-10, IL-12p40, IL-12p70, TNF), RBV alone” value in series [4] (RBV alone at 120 μM, 4, 24 and 72 hours) is listed as “No effects”.
Regarding “O*rU*rU*rG*rU*rG*rU (8-oxo-dG at 5' end, phosphorothioate linkages, as printed in the source, key not given here) [SEQ ID NO:5, ORN with a single 8-Oxo-rG/Dg at the 5′ end]”, the “IFN-alpha cytokine induction, 8-modified nucleotide at the ORN 5′ end” value (from here on “IFN-alpha cytokine induction … at the ORN 5′ end”) in series [5] is reported as “increased cytokine induction”.
For the compound “TCCATGACGTTCCTGATGC (chemistry not given here) [SEQ ID NO. 14, CpG ODN]”, the survival entry in series [6] is “prolonged survival”. Also, the “T cell IFN-γ production ex-vivo after in vivo treatment with a single agent” value in series [2] is listed as “increased”. For the same compound, in series [4] (setting [8]), the IL-10 induction entry is listed as “induced”, the IL-12 induction result is “induced” and the TNF induction entry is “induced”.
With “iIM*rU*rU*rG*rU*rG*rU (5' isatoribine via 5'-5' linkage, phosphorothioate, as printed in the source, key not given here) [SEQ ID NO:6, ORN with Immunosine (Isatoribine) (with a 5′-5′ linkage) at the 5′ end]”, the “IFN-alpha cytokine induction … at the ORN 5′ end” value in series [5] is reported as “increased cytokine induction”.
As to “rO*rU*rU*rG*rU*rG*rU (8-oxo-rG, phosphorothioate linkages, as printed in the source, key not given here) [SEQ ID NO:3, ORN with a single 8-Oxo-rG at the 5′ position]”, the “IFN-alpha cytokine induction, effect of the position of 8-Oxo-rG” value in series [5] is reported as “increased cytokine induction”.
Regarding rO*rU*rU*rO*rU*rO*rU [SEQ ID NO:1], in series [5], the “IFN-alpha cytokine induction, effect of the position of 8-Oxo-rG” value is reported as “increased cytokine induction” and the “IFN-alpha cytokine induction … at the ORN 5′ end” value was “increased cytokine induction”.

The record behind these values is patent US20100189772A1, “Compositions of TLR ligands and antivirals” (COLEY PHARMACEUTICAL GROUP, INC, priority 2006, published 2010).
